Reference: patent publication US20140079740A1 (priority 2012, published 2014)
Read-outs that look alike come from different tables or passages of the source.

Columns and labels:
[1] = test system: anesthesia and analgesia; conditions: cited from earlier work
[2] = cited from earlier work; for T1/2: biological half-life of metabolite
[3] = Dose linearity test for oral transmucosal S-ketamine formulations
[4] = test system: neuropathic pain; conditions: cited from earlier work

## CNC1(c2ccccc2Cl)CCCCC1=O (racemic) [Ketamine, dl-2-(o-chloro-phenyl)-2(methylamino)cyclohexanone]
[1]; IM administration
  duration of anesthesia: 12 to 25 min
[1]; IM route
  time to anesthesia: 3 to 4 min
[1]; administered intravenously
  time to anesthesia: ≤ 0.5 min
  time to sensation of dissociation: 15 s
[1]; following oral dose
  ketamine concentration at effective analgesia: 40 ng/mL
[1]; iv bolus, dosage 2 mg/kg
  Time to onset: 30 to 60 s
  duration of effect: 10 to 15 min
[1]; sum of S- and R-isomer, intramuscular and intravenous administration
  plasma levels at which analgesic effects were observed: 100 to 200 ng/mL
[2]; biological half-life
  T½ beta: 4.98 (1.56) h
[2]; in vivo
  Clearance: 12 to 17 mL/min/kg
  Metabolites excreted fecally: 5%
  Metabolites excreted renally: 90%
  Urinary excretion of unchanged drug: 3-4%
  administered dose excreted unchanged in urine: 4%
  alpha phase half-life: 0.167 to 0.25 h
  apparent volume of distribution: 3.3 L/kg
  beta phase half-life: 2 to 3 h
  clearance rate: 1.3 L/min
  distribution half-life: 7 to 11 min
  duration of alpha phase of distribution: about 45 minutes
  elimination half-life: 2 to 3 h
  elimination halftime: about 2.5 hours
[2]; intramuscular dose
  Bioavailability: 93%
[2]; intramuscular injection
  time of peak plasma concentrations: 5 to 10 min
[2]; intranasal dose
  Bioavailability: 25-50%
[2]; intravenous administration
  time of peak plasma concentrations: ≤ 1 min
[2]; oral administration
  time of peak plasma concentrations: 30 min
[2]; oral dose
  Bioavailability: 20±7%
[2]; orally administered, extensive first-pass metabolism
  Bioavailability: approximately 16%
[2]; rectal, in children
  time of peak absorption: 45 min
[2]; single oral dose of 0.5 mg/kg
  oral bioavailability (AUC) relative to intravenous injection: about 20%

## NC1(c2ccccc2Cl)CCC=CC1=O (stereo not drawn) [Dehydronorketamine]
[2]
  T1/2: 6.91 (1.71) h

## NC1(c2ccccc2Cl)CCCCC1=O (stereo not drawn) [Norketamine]
[2]; after oral administration of ketamine
  peak plasma concentrations of norketamine: 200 ng/mL
[2]
  T1/2: 5.32 (1.70) h

## CN[C@]1(c2ccccc2Cl)CCCCC1=O [S-Ketamine]
[3]
  range of dose linearity: 10 to 300 mg
[1]; in vivo
  therapeutic index relative to R-Ketamine: 2.5 times
[4]; after nasal application
  time to maximal pain reduction: 60 min
[4]; between 30 and 180 min after intranasal administration
  plasma concentrations of (S)-norketamine: > 10 ng/mL
[4]; intranasal
  time to (S)-ketamine plasma-peak: ≤ 15 min
  time to decline of plasma level below 10 ng/ml: ≤ 60 min
[4]; low-dose intranasal administration
  duration of reduction of ongoing neuropathic pain: 2 to 3 h

## N[C@]1(c2ccccc2Cl)CCCCC1=O [S-norketamine]
[1]; in vivo
  analgesic and anaesthetic effect relative to S-ketamine: five times weaker
